Experimental data published in patent US9630922B2, “3-spiro-7-hydroxamic acid tetralins as HDAC inhibitors” (Forma Therapeutics, Inc., priority 2015, dated 2017).

Biological target: T1, HDAC6 (Homo sapiens, UniProt Q9UBN7)
T1 construct: Full length human recombinant HDAC6 protein was expressed in baculoviral system; made in house; host or cells: baculoviral system
T1 sequence (Q9UBN7 1-1215): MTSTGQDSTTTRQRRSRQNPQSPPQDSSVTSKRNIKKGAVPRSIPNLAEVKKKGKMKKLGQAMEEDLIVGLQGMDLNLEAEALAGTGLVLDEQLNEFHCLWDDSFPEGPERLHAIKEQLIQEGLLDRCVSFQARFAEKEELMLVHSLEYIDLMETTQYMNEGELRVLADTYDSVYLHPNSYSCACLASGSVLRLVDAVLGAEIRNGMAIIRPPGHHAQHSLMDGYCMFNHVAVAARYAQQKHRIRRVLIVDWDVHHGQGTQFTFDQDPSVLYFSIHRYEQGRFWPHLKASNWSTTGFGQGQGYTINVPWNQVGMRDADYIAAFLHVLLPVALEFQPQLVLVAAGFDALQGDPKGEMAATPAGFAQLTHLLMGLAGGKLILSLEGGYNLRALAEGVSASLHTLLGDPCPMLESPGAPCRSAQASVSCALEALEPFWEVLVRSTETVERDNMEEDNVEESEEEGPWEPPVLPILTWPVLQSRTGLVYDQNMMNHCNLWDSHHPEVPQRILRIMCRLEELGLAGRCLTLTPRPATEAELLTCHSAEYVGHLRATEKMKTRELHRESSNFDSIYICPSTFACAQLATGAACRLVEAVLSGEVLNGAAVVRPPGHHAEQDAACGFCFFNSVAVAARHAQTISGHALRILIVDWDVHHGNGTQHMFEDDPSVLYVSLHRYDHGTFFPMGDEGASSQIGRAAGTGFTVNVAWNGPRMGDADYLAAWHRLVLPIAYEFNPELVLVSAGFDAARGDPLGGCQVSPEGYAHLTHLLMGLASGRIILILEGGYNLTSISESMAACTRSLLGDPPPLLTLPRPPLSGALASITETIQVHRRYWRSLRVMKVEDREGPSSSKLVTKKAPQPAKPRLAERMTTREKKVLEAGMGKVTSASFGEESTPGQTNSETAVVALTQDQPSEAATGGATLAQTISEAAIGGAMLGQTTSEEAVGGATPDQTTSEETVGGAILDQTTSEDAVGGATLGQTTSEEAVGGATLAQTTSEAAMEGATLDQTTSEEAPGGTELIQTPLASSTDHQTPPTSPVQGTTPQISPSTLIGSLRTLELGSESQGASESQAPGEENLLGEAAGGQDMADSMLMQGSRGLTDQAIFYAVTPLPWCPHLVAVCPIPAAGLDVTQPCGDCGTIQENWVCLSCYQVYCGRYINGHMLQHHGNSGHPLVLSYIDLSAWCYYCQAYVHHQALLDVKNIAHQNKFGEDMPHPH
Experiment: In vitro Histone Deacetylase Assay (enzymatic HDAC6 electrophoretic mobility shift assay)
Type: biochemical
Details: full length human recombinant HDAC6, 1 nM enzyme, 2 μM peptide substrate RHKK(Ac)-NH2, 25° C.; read-out: HDAC6 activity range
How it was run: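 Full-length recombinant human HDAC6 (baculovirus-expressed, 1 nM) was incubated at 25 °C with 2 μM fluorescent RHKK(Ac)-NH2 peptide in HEPES pH 7.5, KCl, BSA, Triton X-100 and 1% DMSO, then SDS-quenched. Substrate and product were separated by microfluidic mobility shift, and IC50 came from 4-parameter fits of 12-point, 3-fold dilution curves.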

Structure (SMILES) | IC50 [nM]
Cc1ccc(N2CC[C@@]3(CCc4cc(C(=O)NO)ccc4C3)C2=O)cn1 [Compound I-134, (S)-N-hydroxy-1′-(6-methylpyridin-3-yl)-2′-oxo-3,4-dihydro-1H-spiro[naphthalene-2,3′-pyrrolidine]-6-carboxamide] | ≤ 100
Cc1cncc(N2CC[C@]3(CCc4cc(C(=O)NO)ccc4C3)C2=O)c1 [Compound I-135, (R)-N-hydroxy-1′-(5-methylpyridin-3-yl)-2′-oxo-3,4-dihydro-1H-spiro[naphthalene-2,3′-pyrrolidine]-6-carboxamide] | ≤ 100
Cc1ccncc1N1CC[C@]2(CCc3cc(C(=O)NO)ccc3C2)C1=O [Compound I-136, (R)-N-hydroxy-1′-(4-methylpyridin-3-yl)-2′-oxo-3,4-dihydro-1H-spiro[naphthalene-2,3′-pyrrolidine]-6-carboxamide] | ≤ 100
Cc1ccncc1N1CC[C@@]2(CCc3cc(C(=O)NO)ccc3C2)C1=O [Compound I-137, (S)-N-hydroxy-1′-(4-methylpyridin-3-yl)-2′-oxo-3,4-dihydro-1H-spiro[naphthalene-2,3′-pyrrolidine]-6-carboxamide] | ≤ 100
O=C(NO)c1ccc2c(c1)CC[C@@]1(CCN(c3cncc(Cl)c3)C1=O)C2 [Compound I-138, (S)-1′-(5-chloropyridin-3-yl)-N-hydroxy-2′-oxo-3,4-dihydro-1H-spiro[naphthalene-2,3′-pyrrolidine]-6-carboxamide] | ≤ 100
O=C(NO)c1ccc2c(c1)CC[C@]1(CCN(c3cncc(Cl)c3)C1=O)C2 [Compound I-139, (R)-1′-(5-chloropyridin-3-yl)-N-hydroxy-2′-oxo-3,4-dihydro-1H-spiro[naphthalene-2,3′-pyrrolidine]-6-carboxamide] | ≤ 100
O=C(NO)c1ccc2c(c1)CC[C@]1(CCN(c3ccncc3Cl)C1=O)C2 [Compound I-140, (R)-1′-(3-chloropyridin-4-yl)-N-hydroxy-2′-oxo-3,4-dihydro-1H-spiro[naphthalene-2,3′-pyrrolidine]-6-carboxamide] | ≤ 100
O=C(NO)c1ccc2c(c1)CC[C@@]1(CCN(c3ccncc3Cl)C1=O)C2 [Compound I-141, (S)-1′-(3-chloropyridin-4-yl)-N-hydroxy-2′-oxo-3,4-dihydro-1H-spiro[naphthalene-2,3′-pyrrolidine]-6-carboxamide] | ≤ 100
COc1ccncc1N1CC[C@@]2(CCc3cc(C(=O)NO)ccc3C2)C1=O [Compound I-142, (S)-N-hydroxy-1′-(4-methoxypyridin-3-yl)-2′-oxo-3,4-dihydro-1H-spiro[naphthalene-2,3′-pyrrolidine]-6-carboxamide] | ≤ 100
COc1cncc(N2CC[C@]3(CCc4cc(C(=O)NO)ccc4C3)C2=O)c1 [Compound I-143, (R)-N-hydroxy-1′-(5-methoxypyridin-3-yl)-2′-oxo-3,4-dihydro-1H-spiro[naphthalene-2,3′-pyrrolidine]-6-carboxamide] | ≤ 100
COc1cncc(N2CC[C@@]3(CCc4cc(C(=O)NO)ccc4C3)C2=O)c1 [Compound I-144, (2S)-N-hydroxy-1′-(5-methoxypyridin-3-yl)-2′-oxo-3,4-dihydro-1H-spiro[naphthalene-2,3′-pyrrolidine]-6-carboxamide] | ≤ 100
COc1ncccc1N1CC[C@]2(CCc3cc(C(=O)NO)ccc3C2)C1=O [Compound I-145, (R)-N-hydroxy-1′-(2-methoxypyridin-3-yl)-2′-oxo-3,4-dihydro-1H-spiro[naphthalene-2,3′-pyrrolidine]-6-carboxamide] | ≤ 100
COc1ncccc1N1CC[C@@]2(CCc3cc(C(=O)NO)ccc3C2)C1=O [Compound I-146, (S)-N-hydroxy-1′-(2-methoxypyridin-3-yl)-2′-oxo-3,4-dihydro-1H-spiro[naphthalene-2,3′-pyrrolidine]-6-carboxamide] | ≤ 100

Other lines, results leading:

IC50 [nM] | Structure (SMILES)
≤ 100 | COc1ccc(F)c(N2CC[C@@]3(CCc4cc(C(=O)NO)ccc4C3)C2=O)c1 [Compound I-147, (2S)-1′-(2-fluoro-5-methoxyphenyl)-N-hydroxy-2′-oxo-3,4-dihydro-1H-spiro[naphthalene-2,3′-pyrrolidine]-6-carboxamide]
≤ 100 | COc1cc(F)cc(N2CC[C@@]3(CCc4cc(C(=O)NO)ccc4C3)C2=O)c1 [Compound I-148, (2S)-1′-(3-fluoro-5-methoxyphenyl)-N-hydroxy-2′-oxo-3,4-dihydro-1H-spiro[naphthalene-2,3′-pyrrolidine]-6-carboxamide]
≤ 100 | COc1cc(N2CC[C@]3(CCc4cc(C(=O)NO)ccc4C3)C2=O)ccn1 [Compound I-149, (R)-N-hydroxy-1′-(2-methoxypyridin-4-yl)-2′-oxo-3,4-dihydro-1H-spiro[naphthalene-2,3′-pyrrolidine]-6-carboxamide]
≤ 100 | COc1cc(N2CC[C@@]3(CCc4cc(C(=O)NO)ccc4C3)C2=O)ccn1 [Compound I-150, (S)-N-hydroxy-1′-(2-methoxypyridin-4-yl)-2′-oxo-3,4-dihydro-1H-spiro[naphthalene-2,3′-pyrrolidine]-6-carboxamide]
≤ 100 | CN(C)c1ccc(N2CC[C@]3(CCc4cc(C(=O)NO)ccc4C3)C2=O)cn1 [Compound I-151, (2R)-1′-[6-(dimethylamino)pyridin-3-yl]-N-hydroxy-2′-oxo-3,4-dihydro-1H-spiro[naphthalene-2,3′-pyrrolidine]-6-carboxamide]
100 to 500 | CN(C)c1ccc(N2CC[C@@]3(CCc4cc(C(=O)NO)ccc4C3)C2=O)cn1 [Compound I-152, (2S)-1′-[6-(dimethylamino)pyridin-3-yl]-N-hydroxy-2′-oxo-3,4-dihydro-1H-spiro[naphthalene-2,3′-pyrrolidine]-6-carboxamide]
≤ 100 | O=C(NO)c1ccc2c(c1)CC[C@@]1(CCN(c3cncc(F)c3)C1=O)C2 [Compound I-153, (2S)-1′-(5-fluoropyridin-3-yl)-N-hydroxy-2′-oxo-3,4-dihydro-1H-spiro[naphthalene-2,3′-pyrrolidine]-6-carboxamide]
≤ 100 | O=C(NO)c1ccc2c(c1)CC[C@@]1(CCN(c3ccc(F)cc3)C1=O)C2 [Compound I-154, (S)-1′-(4-fluorophenyl)-N-hydroxy-2′-oxo-3,4-dihydro-1H-spiro[naphthalene-2,3′-pyrrolidine]-6-carboxamide]
≤ 100 | O=C(NO)c1ccc2c(c1)CC[C@@]1(CCN(c3ccc(F)c(F)c3)C1=O)C2 [Compound I-155, (S)-1′-(3,4-difluorophenyl)-N-hydroxy-2′-oxo-3,4-dihydro-1H-spiro[naphthalene-2,3′-pyrrolidine]-6-carboxamide]
≤ 100 | O=C(NO)c1ccc2c(c1)CC[C@@]1(CCN(c3cccc(F)c3F)C1=O)C2 [Compound I-156, (S)-1′-(2,3-difluorophenyl)-N-hydroxy-2′-oxo-3,4-dihydro-1H-spiro[naphthalene-2,3′-pyrrolidine]-6-carboxamide]
≤ 100 | O=C(NO)c1ccc2c(c1)CC[C@@]1(CCN(c3ccccc3F)C1=O)C2 [Compound I-157, (S)-1′-(2-fluorophenyl)-N-hydroxy-2′-oxo-3,4-dihydro-1H-spiro[naphthalene-2,3′-pyrrolidine]-6-carboxamide]
≤ 100 | COc1cccc(N2CC[C@@]3(CCc4cc(C(=O)NO)ccc4C3)C2=O)c1 [Compound I-158, (S)-N-hydroxy-1′-(3-methoxyphenyl)-2′-oxo-3,4-dihydro-1H-spiro[naphthalene-2,3′-pyrrolidine]-6-carboxamide]
